# Measured values as given in patent EP3643310B1, “COMPOSITION FOR REVERSE CONTROL OF CELLULAR SENESCENCE COMPRISING PDK1 INHIBITOR” (Korea Advanced Institute Of Science And Technology, priority 2018, dated 2020).
# Tests used:
# Assay type in all cases: cell-based, human
# senescent fibroblasts [1] = experiment: ki-67 fluorescence staining (cell division/proliferation marker)
# Protocol: (§1) To determine whether the senescent cells subjected to the PDK1 inhibition are reverted to normal young cells, the PDX1 inhibitor BX-795 (Selleckchem) was applied to the senescent fibroblasts. Then, SA β-gal activity assay (senescence-associated β-galactosidase kit), wound healing assay, and fluorescence staining experiments were performed. Thus, the cell cycle change in the senescent cells based on PDK1 Inhibition was checked.
# (§2) Specifically, cellular senescence was caused by exposing the cells for 7 days to culture conditions causing senescence, containing 100 ng/ml of IGF1, 100 ng/ml of doxorubicin, 10 % FBS, and 4.5 g/L of glucose. At this time, most of the cells turned senescent. Then, the PDK1 inhibitor was applied to the same culture condition for 7 days. Total 14 days of the application lapsed. […] Ki-67 expression was analyzed to evaluate the division activity of the cells and the results are shown in 4C.
# (§3) In order to check whether the same result occurs when other PDK1 inhibitors are used, SA β-gal activity assay was performed in the same manner using PDK1 inhibitor 7. […] Therefore, the number of bluestained senescent cells as SA β-gal activity assay-positive and the total number of cells were counted using an optical microscope. […] In addition, fluorescence staining experiments were performed to check the expression of the cell proliferation marker ki-67.
# senescent fibroblasts [2] = experiment: wound healing assay; conditions: same senescence/inhibitor conditions; growth-condition medium for 7 days; FIG. 4B
# Protocol: To determine whether the senescent cells subjected to the PDK1 inhibition are reverted to normal young cells, the PDX1 inhibitor BX-795 (Selleckchem) was applied to the senescent fibroblasts. Then, SA β-gal activity assay (senescence-associated β-galactosidase kit), wound healing assay, and fluorescence staining experiments were performed. Thus, the cell cycle change in the senescent cells based on PDK1 Inhibition was checked. Specifically, cellular senescence was caused by exposing the cells for 7 days to culture conditions causing senescence, containing 100 ng/ml of IGF1, 100 ng/ml of doxorubicin, 10 % FBS, and 4.5 g/L of glucose. At this time, most of the cells turned senescent. Then, the PDK1 inhibitor was applied to the same culture condition for 7 days. Total 14 days of the application lapsed. Then, the cells were treated with growth media free of IGF1, doxorubicin, or PDK1 inhibitor. The wound healing assay was performed under the same conditions. Ki-67 expression was analyzed to evaluate the division activity of the cells and the results are shown in 4C.
# senescent fibroblasts [3] = experiment: SA β-gal activity assay (senescence-associated β-galactosidase kit)
# Protocol: as §1, §2, §3
Structure (SMILES),"ki-67 staining, cell division (senescent fibroblasts [1]; cells treated with growth medium at 7 days after the drug application, FIG. 4C)",cell rejuvenation ability of the senescent cells (wound healing) (senescent fibroblasts [2]),"SA β-gal as an indicator of senescent cells (senescent fibroblasts [3]; senescence induced 7 days with IGF1 100 ng/ml + doxorubicin 100 ng/ml, PDK1 inhibitor applied 7 days, assay one day after change to growth media, FIG. 4A)","increase of the number of ki-67 positive cells (senescent fibroblasts [1]; PDK1 inhibitor applied to senescent cells, FIG. 5C, 5D)","reduction of SA β-gal stained cells compared with the PDK1 inhibitor non-treated group (senescent fibroblasts [3]; percentage of blue-stained senescent cells counted by optical microscope, statistically significant, FIG. 5A, 5B)"
O=C(NCCCNc1nc(Nc2cccc(NC(=O)N3CCCC3)c2)ncc1I)c1cccs1 [BX-795],cell division occurred in some of the cells,normalized,significantly reduced,–,–
O=C(N[C@@H](COc1ccc2[nH]c(=O)[nH]c2c1)c1ccccc1)c1cccn(Cc2ccc(F)c(F)c2)c1=O [PDK1 inhibitor 7],–,–,–,≥ 20%,≥ 40%
